Data published in paper PMC2248166, “Quantitative peptide binding motifs for 19 human and mouse MHC class I molecules derived using positional scanning combinatorial peptide libraries” (Immunome Research, 2008).
Where a SMILES comes first, the peptide text is derived from it.

Legend:
Test in all cases: biochemical
Assay type in all cases: binding
HLA B*1501 = HLA B*1501 (Homo sapiens, UniProt P01889, A329T/A93T/A95T/C349S/D201E/D98Y/E187L/E204Q/E69M/E70A/K202T/N87E/Q94N/R155S/R180W/S121R/S35A/S48A/V306I/V36M/Y140S/Y91S)
HLA A*3201 = HLA A*3201 (Homo sapiens, UniProt P04439, A270S/D101S/D185E/E176V/E277Q/F133L/G103R/G107R/G231S/H175R/I121M/I218V/I322F/K168Q/L105A/L300P/L318F/M331R/P208A/P217A/Q94H/R106L/R138Q/S129P/T104I/T323A/T345S/V100E/V321M/V358M)
HLA A*3001 = HLA A*3001 (Homo sapiens, UniProt P04439, D140H/D185E/E176W/F33S/G80R/H175R/K168Q/R138E/R41S)
HLA A*3001, sequence (P04439 25-365 limits assumed, stated change not applied): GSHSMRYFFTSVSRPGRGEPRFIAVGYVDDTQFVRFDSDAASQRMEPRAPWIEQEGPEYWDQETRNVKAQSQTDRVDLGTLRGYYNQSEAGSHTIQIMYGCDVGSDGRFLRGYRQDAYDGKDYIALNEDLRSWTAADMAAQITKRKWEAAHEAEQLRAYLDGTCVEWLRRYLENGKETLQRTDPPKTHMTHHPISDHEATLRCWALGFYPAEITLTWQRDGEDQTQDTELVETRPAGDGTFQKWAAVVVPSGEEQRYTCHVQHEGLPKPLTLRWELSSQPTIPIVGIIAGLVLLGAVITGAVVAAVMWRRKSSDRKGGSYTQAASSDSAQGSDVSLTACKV

HLA B*1503 = HLA B*1503 (Homo sapiens, UniProt P01889, A329T/A93T/A95T/C349S/D201E/D98Y/E187L/E204Q/K202T/N87E/Q94N/R155S/R180L/S121R/S35A/V306I/V36M/Y140S/Y91S)

SMILES | IC50 (HLA B*1501) | IC50 (HLA A*3201) | IC50 (HLA A*3001) | IC50 (HLA B*1503)
CC[C@H](C)[C@H](NC(=O)[C@H](CCCCN)NC(=O)[C@H](CC(N)=O)NC(=O)[C@H](CO)NC(=O)[C@H](Cc1ccc(O)cc1)NC(=O)[C@H](CCCCN)NC(=O)[C@H](CC(C)C)NC(=O)[C@@H](NC(=O)[C@@H](N)CCCCN)[C@@H](C)O)C(=O)O [3102.0326] (H-KTLKYSNKI-OH) | 124 nM | 1.9 nM | 38 nM | –
CC[C@H](C)[C@H](NC(=O)[C@@H](N)CCCCN)C(=O)NCC(=O)N[C@@H](CCSC)C(=O)N[C@@H](Cc1ccccc1)C(=O)N[C@@H](CC(N)=O)C(=O)N[C@@H](CC(C)C)C(=O)N[C@H](C(=O)N[C@@H](Cc1ccccc1)C(=O)O)[C@@H](C)O [3102.0341] (H-KIGMFNLTF-OH) | 0.21 nM | 0.27 nM | – | 13 nM
CC[C@H](C)[C@H](NC(=O)[C@@H]1CCCN1C(=O)[C@@H](NC(=O)[C@H](CO)NC(=O)[C@H](CC(N)=O)NC(=O)[C@H](Cc1ccc(O)cc1)NC(=O)[C@H](CO)NC(=O)[C@H](CCC(N)=O)NC(=O)[C@@H](N)CCSC)C(C)C)C(=O)O [3102.0353] (H-MQSYNSVPI-OH) | 1.6 nM | 2.5 nM | – | 0.73 nM
CC[C@H](C)[C@H](NC(=O)[C@@H](NC(=O)[C@@H](N)CCCCN)[C@@H](C)O)C(=O)N[C@@H](CC(N)=O)C(=O)N[C@@H](C)C(=O)N[C@@H](CC(C)C)C(=O)N[C@H](C(=O)N[C@@H](Cc1ccc(O)cc1)C(=O)N[C@@H](Cc1ccccc1)C(=O)O)C(C)C [3102.0359] (H-KTINALVYF-OH) | 0.37 nM | 8.7 nM | – | 23 nM
CC[C@H](C)[C@H](NC(=O)[C@@H](N)CCC(N)=O)C(=O)N[C@H](C(=O)N[C@@H](C)C(=O)N[C@@H](Cc1ccc(O)cc1)C(=O)N[C@@H](Cc1ccccc1)C(=O)N[C@@H](CO)C(=O)N[C@@H](CCC(=O)O)C(=O)N[C@@H](Cc1ccccc1)C(=O)O)C(C)C [3102.0816] (H-QIVAYFSEF-OH) | 1.4 nM | 70 nM | – | 7.9 nM
CC(C)C[C@H](NC(=O)[C@@H](N)C(C)C)C(=O)N[C@@H](Cc1ccccc1)C(=O)N[C@@H](CCC(=O)O)C(=O)N[C@H](C(=O)N[C@@H](Cc1ccccc1)C(=O)N[C@H](C(=O)N[C@H](C(=O)N[C@@H](Cc1ccccc1)C(=O)O)C(C)C)C(C)C)C(C)C [3102.0818] (H-VLFEVFVVF-OH) | 2.9 nM | 7.8 nM | – | 4.9 nM
CC[C@H](C)[C@H](NC(=O)[C@H](CO)NC(=O)[C@@H](N)CCSC)C(=O)N[C@@H](CCSC)C(=O)N1CCC[C@H]1C(=O)N[C@H](C(=O)N[C@@H](CC(C)C)C(=O)N[C@@H](C)C(=O)N[C@@H](Cc1ccc(O)cc1)C(=O)O)C(C)C [3102.0858] (H-MSIMPVLAY-OH) | 1.4 nM | 100 nM | – | –
CC(C)C[C@H](NC(=O)[C@@H](N)CC(C)C)C(=O)N[C@@H](Cc1ccc(O)cc1)C(=O)N[C@H](C(=O)N[C@@H](C)C(=O)N[C@@H](CC(N)=O)C(=O)N[C@@H](Cc1ccccc1)C(=O)N[C@H](C(=O)N[C@@H](Cc1ccccc1)C(=O)O)[C@@H](C)O)[C@@H](C)O [3102.0873] (H-LLYTANFTF-OH) | 2.4 nM | 6.7 nM | – | –
CC[C@H](C)[C@H](NC(=O)[C@@H]1CCCN1C(=O)[C@H](CCC(=O)O)NC(=O)[C@H](CCC(=O)O)NC(=O)[C@H](CC(C)C)NC(=O)[C@H](Cc1ccc(O)cc1)NC(=O)[C@H](Cc1ccccc1)NC(=O)[C@H](CC(C)C)NC(=O)[C@@H](N)CCSC)C(=O)O [3102.0881] (H-MLFYLEEPI-OH) | 45 nM | 2.5 nM | – | –
CC[C@H](C)[C@H](NC(=O)[C@@H](NC(=O)[C@@H](N)CO)[C@@H](C)CC)C(=O)N[C@@H](CO)C(=O)N[C@@H](CC(C)C)C(=O)N[C@@H](Cc1ccccc1)C(=O)N[C@@H](Cc1ccc(O)cc1)C(=O)N[C@H](C(=O)N[C@@H](Cc1ccccc1)C(=O)O)[C@@H](C)O [3102.0919] (H-SIISLFYTF-OH) | 1.4 nM | 5.7 nM | – | –
CC(C)C[C@H](N)C(=O)N[C@H](C(=O)N[C@@H](Cc1ccccc1)C(=O)N[C@@H](CC(=O)O)C(=O)N[C@@H](Cc1ccc(O)cc1)C(=O)N[C@H](C(=O)N[C@H](C(=O)N[C@H](C(=O)N[C@@H](Cc1ccccc1)C(=O)O)[C@@H](C)O)C(C)C)C(C)C)[C@@H](C)O [3102.0931] (H-LTFDYVVTF-OH) | 2.5 nM | 17 nM | – | –
CC(C)C[C@H](NC(=O)[C@H](C)N)C(=O)N[C@@H](CC(C)C)C(=O)N[C@@H](CCC(=O)O)C(=O)N[C@@H](CC(C)C)C(=O)N[C@@H](Cc1ccccc1)C(=O)N[C@@H](CC(N)=O)C(=O)N[C@@H](C)C(=O)N[C@@H](Cc1ccccc1)C(=O)O [3102.0961] (H-ALLELFNAF-OH) | 2.5 nM | 166 nM | – | 0.24 nM
CC[C@H](C)[C@H](NC(=O)[C@@H](NC(=O)[C@@H](N)CC(C)C)[C@@H](C)CC)C(=O)N[C@H](C(=O)N[C@@H](CCCCN)C(=O)N[C@H](C(=O)N[C@@H](Cc1ccccc1)C(=O)N[C@@H](CO)C(=O)N[C@@H](Cc1ccccc1)C(=O)O)C(C)C)[C@@H](C)O [3102.1011] (H-LIITKVFSF-OH) | 7.7 nM | 84 nM | – | –
CC[C@H](C)[C@H](NC(=O)[C@@H](N)CC(N)=O)C(=O)N[C@@H](Cc1ccccc1)C(=O)N1CCC[C@H]1C(=O)N[C@@H](Cc1ccccc1)C(=O)N[C@@H](Cc1ccccc1)C(=O)N[C@H](C(=O)N[C@@H](C)C(=O)N[C@@H](Cc1ccccc1)C(=O)O)C(C)C [3102.1019] (H-NIFPFFVAF-OH) | 2.2 nM | 12 nM | – | –
CC[C@H](C)[C@H](NC(=O)[C@@H](NC(=O)[C@@H](N)CCCCN)[C@@H](C)O)C(=O)N[C@@H](C)C(=O)N[C@@H](CCCNC(=N)N)C(=O)N[C@@H](Cc1ccccc1)C(=O)N[C@H](C(=O)N[C@@H](Cc1ccc(O)cc1)C(=O)N[C@@H](Cc1ccccc1)C(=O)O)[C@@H](C)O [3102.1031] (H-KTIARFTYF-OH) | 0.2 nM | 95 nM | – | –
CC(C)C[C@H](NC(=O)[C@H](Cc1ccccc1)NC(=O)[C@H](Cc1c[nH]c2ccccc12)NC(=O)[C@H](CC(C)C)NC(=O)[C@@H](N)CC(C)C)C(=O)N[C@H](C(=O)NCC(=O)N[C@H](C(=O)N[C@@H](Cc1ccccc1)C(=O)O)[C@@H](C)O)[C@@H](C)O [3102.1045] (H-LLWFLTGTF-OH) | 0.78 nM | 93 nM | – | –
CC[C@H](C)[C@H](NC(=O)[C@H](CC(C)C)NC(=O)[C@H](Cc1ccccc1)NC(=O)[C@@H](NC(=O)[C@H](CO)NC(=O)[C@H](Cc1ccc(O)cc1)NC(=O)[C@H](CC(C)C)NC(=O)[C@@H](N)CCCNC(=N)N)[C@@H](C)CC)C(=O)N[C@@H](Cc1ccccc1)C(=O)O [3102.1049] (H-RLYSIFLIF-OH) | 3.4 nM | 6.9 nM | – | 0.16 nM
CC(C)C[C@H](N)C(=O)N[C@@H](CO)C(=O)N[C@@H](Cc1ccc(O)cc1)C(=O)N[C@@H](Cc1ccc(O)cc1)C(=O)N[C@H](C(=O)N[C@H](C(=O)N[C@@H](Cc1ccc(O)cc1)C(=O)N[C@H](C(=O)N[C@@H](Cc1ccccc1)C(=O)O)C(C)C)C(C)C)C(C)C [3102.1098] (H-LSYYVVYVF-OH) | 6.4 nM | 280 nM | – | 19 nM
CC(C)C[C@H](NC(=O)[C@@H](N)CCCCN)C(=O)N[C@@H](CC(N)=O)C(=O)N[C@@H](CC(N)=O)C(=O)N[C@H](C(=O)N[C@@H](Cc1ccccc1)C(=O)N[C@@H](Cc1ccc(O)cc1)C(=O)N[C@H](C(=O)N[C@@H](Cc1ccccc1)C(=O)O)C(C)C)C(C)C [3102.1169] (H-KLNNVFYVF-OH) | 1.2 nM | 0.52 nM | – | –
CC[C@H](C)[C@H](NC(=O)[C@H](CO)NC(=O)[C@@H](N)CC(C)C)C(=O)N[C@@H](Cc1ccccc1)C(=O)N[C@@H](Cc1ccccc1)C(=O)N[C@@H](Cc1ccc(O)cc1)C(=O)N[C@@H](CO)C(=O)N[C@@H](CO)C(=O)N[C@@H](Cc1ccccc1)C(=O)O [3102.1177] (H-LSIFFYSSF-OH) | 17 nM | 129 nM | – | 0.22 nM
CC[C@H](C)[C@H](NC(=O)[C@@H](N)CCCCN)C(=O)N[C@@H](Cc1ccc(O)cc1)C(=O)N[C@@H](CC(N)=O)C(=O)N[C@H](C(=O)N[C@H](C(=O)N[C@@H](CC(N)=O)C(=O)N1CCC[C@H]1C(=O)N[C@@H](Cc1ccccc1)C(=O)O)[C@@H](C)O)C(C)C [3102.1223] (H-KIYNVTNPF-OH) | 2.7 nM | 4.3 nM | – | 7.5 nM
CC[C@H](C)[C@H](NC(=O)[C@H](CO)NC(=O)[C@H](CC(N)=O)NC(=O)[C@H](CC(C)C)NC(=O)[C@@H](N)CO)C(=O)N[C@@H](Cc1ccccc1)C(=O)N[C@@H](CC(N)=O)C(=O)N[C@H](C(=O)N[C@@H](Cc1ccccc1)C(=O)O)[C@@H](C)O [3102.1238] (H-SLNSIFNTF-OH) | 2.2 nM | 14 nM | – | –
CC(C)C[C@H](NC(=O)[C@@H](NC(=O)[C@@H](NC(=O)[C@H](CO)NC(=O)[C@H](CC(N)=O)NC(=O)[C@H](CCC(N)=O)NC(=O)[C@@H](N)CC(C)C)C(C)C)C(C)C)C(=O)N[C@@H](CCC(N)=O)C(=O)N[C@@H](Cc1ccccc1)C(=O)O [3102.1263] (H-LQNSVVLQF-OH) | 1.5 nM | 7.3 nM | – | 6.2 nM
CSCC[C@H](NC(=O)[C@@H](N)Cc1c[nH]cn1)C(=O)N[C@@H](C)C(=O)N[C@@H](Cc1ccc(O)cc1)C(=O)N[C@@H](CO)C(=O)N[C@@H](Cc1ccccc1)C(=O)N[C@@H](CCC(N)=O)C(=O)N[C@H](C(=O)N[C@@H](Cc1ccccc1)C(=O)O)[C@@H](C)O [3102.1331] (H-HMAYSFQTF-OH) | 0.25 nM | 16 nM | – | 0.28 nM
